Results published in ChEMBL document CHEMBL1201862, “PubChem BioAssay data set” (2004).
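These data come from cells grown in 96-well plates and exposed to compound for 48 hours at five concentrations. At the GI50, growth is halved.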 Active and inactive are the calls of the source. No stated cut-off is given here; in the data, active = GI50 up to about 1.1 µM and inactive = higher.

Columns and labels:
Assay in all cases: DTP human tumour cell line panel, 48 h
[1] = test system: BT-549
[2] = test system: MDA-N
[3] = test system: HCT-116
[4] = test system: MDA-MB-231
[5] = test system: PC-3
[6] = test system: T47D
[7] = test system: CAKI-1
[8] = test system: SK-MEL-28
[9] = test system: HT-29
[10] = test system: KM12
[11] = test system: 786-0
[12] = test system: SF-539
[13] = test system: EKVX
[14] = test system: ACHN
[15] = test system: CCRF-CEM
[16] = test system: Malme-3M
[17] = test system: NCI-H460
[18] = test system: OVCAR-5
[19] = test system: HCC 2998

Measured: GI50

CC(C)=CCC1=C(OCC(=O)O)C(=O)c2ccccc2C1=O
inactive: [1] 29.9 µM | [2] 17.9 µM | [3] 22.6 µM | [4] 49.8 µM | [5] 31.3 µM | [6] 31.5 µM | [7] 52.5 µM | [8] 35 µM | [9] 47.2 µM | [10] 25.2 µM | [11] 41.1 µM | [12] 27.2 µM | [13] 37.1 µM | [14] 39.4 µM | [15] 23.9 µM | [16] 19.3 µM | [17] 34.5 µM

Cc1cc(-c2ccc(C(=O)C(Cl)(Cl)Cl)[nH]2)on1
inactive: [1] 33.3 µM | [2] 34.2 µM | [3] 18 µM | [18] 22.6 µM | [4] 18 µM | [5] 29.9 µM | [6] 52.2 µM | [7] 18.1 µM | [8] 31.4 µM | [9] 28.4 µM | [10] 12.2 µM | [11] 37 µM | [12] 15.3 µM | [13] 35.1 µM | [14] 27.9 µM | [15] 27.2 µM | [16] 73.1 µM | [17] 10.2 µM

CNc1cc(Cl)ccc1C(=O)N1CCC[C@H]1CO
inactive: [1] > 100 µM | [2] 97.1 µM | [3] > 100 µM | [18] > 100 µM | [4] > 100 µM | [5] > 100 µM | [6] > 100 µM | [7] > 100 µM | [8] > 100 µM | [9] > 100 µM | [10] > 100 µM | [11] > 100 µM | [12] > 100 µM | [13] > 100 µM | [14] > 100 µM | [15] > 100 µM | [16] > 100 µM

NC(=O)c1nc[nH]c1/N=N/SCC(N)C(=O)O (stereo unspecified)
inactive: [1] > 90.8 µM | [3] 6.9 µM | [18] > 94 µM | [4] 6.04 µM | [5] 15.7 µM | [19] 4.06 µM | [6] > 60.5 µM | [7] 4.21 µM | [8] > 100 µM | [9] > 100 µM | [10] 14.2 µM | [11] 19.4 µM | [12] 17.6 µM | [13] > 75.7 µM | [14] 13 µM | [15] 2 µM | [16] 5.9 µM | [17] 12.7 µM

C=CC(=O)NCCC(=O)OCn1cc(F)c(=O)[nH]c1=O
active: [19] 0.369 µM | [17] 0.434 µM
inactive: [1] > 100 µM | [2] 1.56 µM | [3] 3.24 µM | [18] 20.6 µM | [5] 9.12 µM | [6] 83.2 µM | [7] 3.2 µM | [8] 32.2 µM | [9] 4.12 µM | [10] 5.48 µM | [11] 2.92 µM | [12] 2.65 µM | [13] 10.4 µM | [14] 5.02 µM | [15] 16.7 µM | [16] 4.59 µM

Cc1cc(NS(=O)(=O)c2ccc(/N=[N+](\[O-])c3ccc(S(=O)(=O)Nc4cc(C)on4)cc3)cc2)no1
inactive: [1] > 100 µM | [3] > 100 µM | [18] > 100 µM | [4] > 100 µM | [5] > 100 µM | [6] > 100 µM | [7] > 100 µM | [9] > 100 µM | [11] > 100 µM | [12] > 100 µM | [13] > 100 µM | [14] > 100 µM | [15] > 100 µM | [16] > 100 µM

CCN(CC)Cc1ccc(C(=S)Nc2ccc(Cl)cc2)s1
inactive: [1] 5.18 µM | [2] 10.7 µM | [3] 10.5 µM | [18] 11.3 µM | [5] 13.2 µM | [19] 12.6 µM | [6] 11.2 µM | [7] 12.7 µM | [8] 6.92 µM | [9] 2.91 µM | [10] 11.9 µM | [11] 13.1 µM | [12] 13.9 µM | [13] 4.06 µM | [14] 14.2 µM | [15] 11.9 µM | [17] 11.9 µM

COC(=O)C1c2c(c3ccccc3n2C(=O)OC)CCN2CCC1C(S(=O)(=O)c1ccccc1)C2=O (stereo unspecified)
inactive: [1] > 100 µM | [2] > 100 µM | [3] > 100 µM | [18] > 100 µM | [4] > 100 µM | [5] > 100 µM | [6] > 100 µM | [7] > 100 µM | [8] > 100 µM | [9] > 100 µM | [10] > 100 µM | [11] > 100 µM | [12] > 100 µM | [13] > 100 µM | [15] > 100 µM | [16] > 100 µM | [17] > 100 µM
